Tests used:
MLL1, MLL-AF4 = assay: Western blot of MLL1 full-length and MLL-AF4 fusion protein levels in SEM cells; assay type: cell-based, human; details: SEM cells, 0, 5 or 10 μM, 30 hours
Procedure: FIG. 6. CKII inhibition increases genome-wide MLL occupancy and excludes SEC recruitment in MLL leukemia cells. (A) and (B) MLL1C occupancy in CX-4945 or TTP22 treated cells were shown relative to DMSO control. […] (C) Track examples of the MLL1 occupancy at the promoter regions of ELF2 and C6orf211. (D) CX-4945 inhibition of leukemia cell proliferation. Multiple MLL leukemia (orange lines) and non-MLL leukemia (blue lines) were cultured with different doses of CX-4945 for 3 days. Cell number was determined by cell counter and normalized to DMSO control. (E) SEM cells were treated with 0, 5 or 10 μM of CX-4945 for 30 hours and western blot was performed to determine the MLL1 full-length protein levels and MLL-AF4 fusion protein levels. (F) MLL-AFF1, AFF4 and ELL2 occupancies were decreased by CX-4945 treatment in SEM cells.
Cell culture. All of the cell lines were purchased from the American Type Culture Collection (Rockville, Md.). 293T, MCF7 and HCT116 cell lines were maintained in Dulbecco's modified Eagle's medium (DMEM) (Gibco, Gaithersburg, Md.) supplemented with 10% fetal bovine serum (FBS) (Gibco) at 37° with 5% CO2. SEM was maintained in IMDM with 10% FBS. MM6 was maintained in RPMI1640 supplemented with 10% FBS and non-essential amino acids. MOLM13, RS4:11, MV4-11, RL, REH, U937m SU-DHL-6 and OCI-LY1 were maintained in RPMI1640 supplemented with 10% FBS. […]

MLL2, TFIIA = assay: Western blot of MLL2 and TFIIA cleavage in 293T cells treated with CX-4945; assay type: cell-based, human; details: 10 μM, 30 hours
Procedure: FIG. 5. CKII inhibitors selectively increase full-length MLL1 protein levels by decreasing the phosphorylation of MLL1 near the cleavage sites. (A) Conservation of the sequences flanking MLL1-CS2, MLL2 and TFIIA cleavage sites and phosphorylated serine and threonine residues after the cleavage sites (highlighted in red). (B) and (C) 293T cells were transfected with vector control (VT), WT, AA or DD reporter constructs of MLL1-p75 or TFIIA. Western blot was performed with anti-Flag antibody for MLL1 (p75: FL, p47: cleaved) or TFIIA (p54: FL, p47: cleaved). (D) and (E) 293T cells were transfected with WT or AA reporter constructs of MLL1-p75 or TFIIA in the presence or absence of HA-taspase1. Western blot was performed with anti-Flag antibody for MLL1 or TFIIA, or anti-HA antibody for taspase1. (F) 293T cells were infected with shRNAs against CKIIα or CKIIα′. Western blot was performed with anti-MLL1C antibody for MLL1 full-length protein levels, and CKIIα or CKIIα′ for knockdown efficiency. (G) 293T cells were treated with DMSO or 10 μM CX-4945 for 30 hours. Cells were harvested and lysed for Western blot against MLL1, MLL2 or TFIIA using β-tubulin as the loading control. (H) and (I) 293T taspase1 KO cells were pre-treated with CX-4945 (3 μM) or TTP22 (10 μM) for 30 hours. […]

With `O=C(O)c1ccc2c(c1)nc(Nc1cccc(Cl)c1)c1ccncc12` [CX-4945, 5-(3-chlorophenylamino)benzo[c][2,6]naphthyridine-8-carboxylic acid] the MLL1-FL protein levels (MLL1, MLL-AF4) was “MLL1-FL protein levels also increased”, the MLL-AF4 protein levels (MLL1, MLL-AF4) was “without altering MLL-AF4 protein levels” and the “cleavage of MLL2 or TFIIA” value (MLL2, TFIIA) was “without affecting the cleavage of MLL2 or TFIIA”.
